Measured values reported in US5328912A (priority 1993, dated 1994).

What follows are molecules tested against GABAa receptor (assay: GABAa receptor binding assay (displacement of 3H-RO15-1788, rat cortical tissue homogenate)). Settings: 3H-RO15-1788 0.5 nM, 30 min at 4° C., pH 7.4.
Experimental: The pharmaceutical utility of compounds of this invention are indicated by the following assay for GABAa receptor activity.
Assays are carried out as described in Thomas and Tallman (J. Bio. Chem. 156: 9838-9842, J. Neurosci. 3: 433-440, 1983). Rat conical tissue is dissected and homogenized in 25 volumes (w/v) of 0.05M Tris HCl buffer (pH 7.4 at 4° C.). The tissue homogenate is centrifuged in the cold (4°) at 20,000× g for 20'. The supernatant is decanted and the pellet is rehomogenized in the same volume of buffer and again centrifuged at 20,000× g. The supernatant is decanted and the pellet is frozen at -20° C. overnight. The pellet is then thawed and rehomogenized in 25 volume (original wt/vol) of buffer and the procedure is carried out twice. The pellet is finally resuspended in 50 volumes (w/vol of 0.05M Tris HCl buffer (pH 7.4 at […]).
Incubations contain 100 μl of tissue homogenate 100 μl of radioligand 0.5 nM (^3 H-RO15-1788 specific activity 80 Ci/mmol), drug or blocker and buffer to a total volume of 500 μl. Incubations are carried for 30 min at 4° C. then are rapidly filtered through GFB filters to separate free and bound ligand. Filters are washed twice with fresh 0.05M Tris HCl buffer (pH 7.4 at 4° C.) and counted in a liquid scintillation counter. 1.0 μM diazepam is added to some tubes to determine nonspecific binding. Data are collected in triplicate determinations, averaged and % inhibition of total specific binding is calculated. Total Specific Binding=Total-Nonspecific. In some cases, the amounts of unlabeled drugs is varied and total displacement curves of binding are carried out. Data are convened to a form for the calculation of IC50 and Hill Coefficient (nH).

Row | Compound | IC50
1 | CC(c1ccccc1)N1CCc2[nH]c(=O)n3cc(-c4ccccc4F)nc3c2C1 (racemic) [Compound 21, ±9-(α-Methylbenzyl)-2-(2-fluorophenyl)-7,8,9,10-tetrahydro-imidazo[1,2-c]pyrido[3,4-e] pyrimidin-5(6H)-one] | 4.8 nM
2 | O=C(c1ccccc1)N1CCc2[nH]c(=O)n3cc(-c4ccccc4F)nc3c2C1 [Compound 1, 9-Benzoyl-2-(2-fluorophenyl)-7,8,9,10-tetrahydro-imidazo[1,2-c]pyrido[3,4-e]pyrimidin-5(6H)-one] | 500 nM
3 | O=c1[nH]c2c(c3nc(-c4ccccc4F)cn13)CN(Cc1ccccc1F)CC2 [Compound 13, 9-(2-Fluorobenzyl)-2-(2-fluorophenyl)-7,8,9,10-tetrahydro-imidazo[1,2-c]pyrido[3,4-e] pyrimidin-5(6H)-one] | 2.4 nM
4 | O=c1[nH]c2c(c3nc(-c4cccc(Cl)c4)cn13)CN(Cc1ccccc1)CC2 [Compound 14, 9-Benzyl-2-(3-chlorophenyl)-7,8,9,10-tetrahydro-imidazo[1,2-c]pyrido[3,4-e] pyrimidin-5(6H)-one] | 100 nM
5 | O=c1[nH]c2c(c3nc(-c4ccccc4F)cn13)CN(Cc1ccc(F)cc1)CC2 [Compound 22, 9-(4-Fluorobenzyl)-2-(2-fluorophenyl)-7,8,9,10-tetrahydro-imidazo[1,2-c]pyrido[3,4-e]pyrimidin-5(6H)-one] | 3.8 nM
6 | CCC(=O)N1CCc2[nH]c(=O)n3cc(-c4ccccc4F)nc3c2C1 [Compound 36, 9-propionyl-2-(2-fluorophenyl)-7,8,9,10-tetrahydro-imidazo[1,2-c]pyrido[3,4-e]pyrimidin-5(6H)-one] | 10 nM
7 | O=C(OCc1ccccc1)N1CCc2[nH]c(=O)n3cc(-c4ccccc4F)nc3c2C1 [Compound 44, 9-Carbobenzyloxy-2-(2-fluorophenyl)-7,8,9,10-tetrahydro-imidazo[1,2-c]pyrido[3,4-e]pyrimidin-5(6H)-one] | 10 nM
8 | CN1CCc2[nH]c(=O)n3cc(-c4ccccc4F)nc3c2C1 [Compound 49, 9-Methyl-2-(2-fluorophenyl)-7,8,9,10-tetrahydro-imidazo[1,2-c]pyrido[3,4-e]pyrimidin-5(6H)-one] | 30 nM
